Reference: patent US20170231957A1, “INJECTABLE FORMULATIONS OF ASENAPINE” (ALRISE Biosystems GmbH, priority 2014, published 2017)
Where a name gives a salt, the structure may show the parent alone. Read-outs that look alike come from different tables or passages of the source.

Key:
[1] = Solubility of asenapine maleate in a variety of solvents; assay type: physicochemical; details: organic solvent or mixture, read-out: solubility of asenapine maleate, Concentration
Method: The asenapine or a pharmaceutically acceptable salt thereof is dissolved in the organic phase or dispersed as a solid in the organic phase. In order to effectively dissolve the asenapine or a pharmaceutically acceptable salt thereof in the organic phase, a solution of the active principle in a solvent S2 can be provided, and this solution can be combined with the solution of the polymer in the organic solvent S1. It will be understood that, in this case, the solvents S1 and S2 should be different solvents. It is also possible to add the active principle to the solvent S2 in an amount that only a part of it is dissolved in S2, and a part of it remains dispersed as a solid in the solvent S2. Using the process described herein, the active principle can also be encapsulated/embedded in the polymer at a high efficiency in this case. […] Nevertheless, the following table summarizes the solubility of asenapine maleate in a variety of solvents.

[2] = cited from earlier work
[3] = system: serotonin receptors; details: rank among receptor classes; cited from earlier work
[4] = system: muscarinic receptors; details: cited from earlier work
[5] = 20° C.; cited from earlier work

CN1CC2c3ccccc3Oc3ccc(Cl)cc3C2C1 (stereo not shown) [asenapine maleate]
solubility ([1]; DMSO): 700 mg/mL
solubility ([1]; THF): 100 mg/mL
solubility ([1]; solvent EMK): 50 mg/mL
solubility ([1]; solvent NMP): 700 mg/mL
solubility ([1]; solvent acetone): 67 mg/mL
solubility ([1]; solvent benzyl alcohol): 500 mg/mL
solubility ([1]; solvent benzyl benzoate): 7 mg/mL
solubility ([1]; solvent dimethycarbonate): 7 mg/mL
solubility ([1]; solvent dimethylacetamide): 500 mg/mL
solubility ([1]; solvent ethanol): 100 mg/mL
solubility ([1]; solvent ethyl acetate): 10 mg/mL
solubility ([1]; solvent ethyl benzoate): 10 mg/mL
solubility ([1]; solvent ethyl formate): 100 mg/mL
solubility ([1]; solvent glycofurol): 270 mg/mL
solubility ([1]; solvent isopropanol): 7 mg/mL
solubility ([1]; solvent isopropyl acetate): 9 mg/mL
solubility ([1]; solvent isopropyl formate): 100 mg/mL
solubility ([1]; solvent methyl acetate): 25 mg/mL
solubility ([1]; solvent methyl benzoate): 20 mg/mL

CN1CC2c3ccccc3Oc3ccc(Cl)cc3C2C1 (stereo not drawn) [asenapine, trans-5-chloro-2,3,3a,12b-tetrahydro-2-methyl-1-H-dibenz[2,3:6,7]oxepino[4,5-c]pyrrole]
bioavailability ([2]; oral formulations): 2%
bioavailability ([2]; sublingual tablets): 35%
affinity for blocking serotonin receptors [3]: highest affinity
affinity for muscarinic receptors [4]: minimal affinity

CC(C)=O [acetone]
solubility in water [5]: soluble

glycofurol
solubility in water [5]: soluble
